How the values were obtained:
Format in all cases: biochemical
Taq polymerase [1] = target: T1, Taq polymerase (Thermus aquaticus, UniProt P19821); test: Taq polymerase activity assays at low temperature in the presence of additives; conditions: for Activity of Taq polymerase / Activation: 1.0M 1,5-pentanediol, 0.7M 1,6-hexanediol; for Activity of Taq polymerase: normalized to activity of control at 62° C.; for Activation: change in Taq activity versus control
T1 construct: purchased Stratagene
Protocol: The measured polymerase activity, then, is in fact a function of two variables—temperature and additive concentration. The plot of measured activity versus temperature and additive concentration is a two-dimensional surface. While a truly comprehensive search for maximal polymerase activity would entail screening this entire surface, the number of experiments required to do so would of course be impractical. Therefore, polymerase activity was measured first as a function of temperature in the absence of additives and at one given, high additive concentration. The temperature that yielded the maximum activity of the polymerase at that concentration was then targeted for concentration gradient studies.
First, polymerase activity assays were carried out in the absence of additives and in the presence of 1.0M 1,5-pentanediol and 0.7M 1,6-hexanediol at temperatures between 46 and 62° C. Next, polymerase activity was studied at 53° C. in the presence of concentration gradients of 1,5-pentanediol, 2-pyrrolidone, sulfolane and tetramethylene sulfoxide. The concentrations tested were: 1,5-pentanediol: 1.0, 1.3, 1.5, 2.25, 3.0 and 3.5M; 2-pyrrolidone: 1.25, 1.5, 2.0 and 3.9M; sulfolane: 1.0, 1.5, 2.0 and 2.75M, tetramethylene sulfoxide: 1.0, 1.5, 2.0 and 3.0M.

[2] = system: bovine brain glycolipid transfer protein (GTP) cDNA (660 bp); test: Pilot low temperature PCR of GTP with 1,5-pentanediol; conditions: normalized: 1,5-pentanediol (95/72° C.) = 1
Protocol: Amplification reactions were carried out under the following general conditions. Those skilled in the art will appreciate, however, that to the extent that the conditions (set forth in this application) required for specific experiments described in this example were inconsistent with the following general conditions, limited exceptions to the following general conditions were made The general conditions were as follows: 10 Mm Tris-HCl (Ph 8.8), 50 Mm KCl, 1.5 Mm MgCl2, 0.01% (w/v) gelatin, 0.2 Um primers, 0.06 ng/ul template, 0.2 Mm each Dntp, 0.04 U/ul Taq polymerase. The templates used were bovine brain N-WASP cDNA (1518 bp), a 996 by segment of human myeloid leukocyte c-jun cDNA, a 511 by segment of human prostate-specific membrane antigen (PSM) cDNA, and bovine brain glycolipid transfer protein (GTP) cDNA (660 bp). cDNA synthesis was carried out using the FIRST-STRAND® RT-PCR kit from Stratagene on the respective mRNAs purchased from Clontech. All amplification reactions for gene were carried out using a single master batch of cDNA. Taq polymerase and dNTPs were obtained from Stratagene. Primers were obtained from Genosys. Primer melting temperatures (Tms) were calculated using the Genosys oligo calculator program. The sequences of the primers were as follows.
Polymerase chain reactions for the N-WASP gene were conducted on a ROBOCYCLER® Gradient 40 thermal cycler from Stratagene using 100 ul solutions in 600 ul thin-walled tubes. For expediency, amplification of c-jun, PSM and GTP was carried out in a ROBOCYCLER® Gradient 96 thermal cycler from Stratagene using 50 ul solutions in 200 ul thin-walled tubes. Prior to Taq polymerase addition, a hotstart protocol was carried out that consisted of an initial cycle of 95° C. for 5 minutes (11) to ensure complete first-strand separation, followed by a cycle of 54° C. for 5 minutes. Amplifications were run for 30 cycles. Denaturation was done for 1 minute at the minimum temperatures that yielded discernable amplification: 92° C. for N-WASP and 95° C. for c-jun, PSM and GTP. Extension was done at 72° C. for periods depending on target length: 2 minutes for N-WASP, 1.5 minutes for c-jun and GTP, and 1 minute for PSM. Annealings were carried out either at fixed concentrations of additives using temperature gradients of 38-56° C. for N-WASP and 44-58° C. for the other targets, or at varying concentrations of additives using fixed temperatures of 41° C. for N-WASP, 50° C. for c-jun and PSM, and 54° C. for GTP.
Amplification products were analyzed by agarose gel electrophoresis on 0.8% agarose gels in which 20 ul reaction products were loaded with 4 ul loading buffer. Gels were stained with ethidium bromide, visualized on a UV transilluminator (Fisher), and documented by photography. Densitometric quantitation of amplification products was carried out using IMAGE SCANNER® and IMAGE MASTER® software from Amersham Pharmacia. Background correction was done using the software's rolling disc method. […] GTP was used as the target because it has the lowest GC content of the three templates used. PCR reactions were carried out in the presence of 1.0 and 1.5M 1,5-pentanediol under the conditions of 85° C. denaturing and 53° C. extension, using a 50° C. annealing temperature. In addition, 1.5M and 2.0M 1,5-pentandediol were tested using an 80° C. denaturing temperature, with identical annealing and extension temperature. Finally, 2.0, 2.5, and 3.0M 1,5-pentanediol were tested in GTP amplification employing a 75° C. denaturation temperature.

Taq polymerase [3] = target: T1, Taq polymerase; test: Predicted thermostability (half-life) of Taq polymerase in the presence of diols
Protocol: It is possible that this discrepancy was due to the greatly diminished thermostability of the polymerase at the cutoff concentrations. Based on thermodynamic data, Taq polymerase in the absence of template is predicted to have a half-life of about 8 seconds at 95° C. in the presence of 0.9M 1,2-butanediol and 10 seconds in the presence of 0.6M 1,5-pentanediol. These values will be increased in the presence of template, but will still be very low, especially during the initial cycles when template concentration is limited.

T1 sequence (P19821 whole entry): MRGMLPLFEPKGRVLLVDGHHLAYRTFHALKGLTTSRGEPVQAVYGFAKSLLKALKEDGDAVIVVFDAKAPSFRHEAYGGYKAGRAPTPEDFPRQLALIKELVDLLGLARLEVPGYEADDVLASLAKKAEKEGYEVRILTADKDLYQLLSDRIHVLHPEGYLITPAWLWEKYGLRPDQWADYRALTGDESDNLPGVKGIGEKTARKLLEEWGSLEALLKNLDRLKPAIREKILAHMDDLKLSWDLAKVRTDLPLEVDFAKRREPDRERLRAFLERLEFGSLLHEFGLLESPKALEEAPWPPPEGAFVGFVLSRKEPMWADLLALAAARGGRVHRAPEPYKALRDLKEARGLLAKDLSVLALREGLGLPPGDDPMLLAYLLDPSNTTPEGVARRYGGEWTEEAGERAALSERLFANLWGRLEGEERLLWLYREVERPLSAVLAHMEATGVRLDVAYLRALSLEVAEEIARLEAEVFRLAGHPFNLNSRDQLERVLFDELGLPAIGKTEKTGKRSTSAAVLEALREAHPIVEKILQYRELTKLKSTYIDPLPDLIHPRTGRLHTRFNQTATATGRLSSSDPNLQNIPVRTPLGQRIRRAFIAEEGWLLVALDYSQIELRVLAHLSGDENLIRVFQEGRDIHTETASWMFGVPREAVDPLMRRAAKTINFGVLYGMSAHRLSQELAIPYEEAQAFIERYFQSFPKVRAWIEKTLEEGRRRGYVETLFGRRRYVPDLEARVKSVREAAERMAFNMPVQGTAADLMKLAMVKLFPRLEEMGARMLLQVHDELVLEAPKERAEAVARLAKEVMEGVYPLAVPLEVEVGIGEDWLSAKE

## OCCCCCO [1,5-Pentanediol]
Taq polymerase [1]; 1.0M, within 49° C.-53° C.
  Activation of Taq polymerase: exceeds 25%
Taq polymerase [1]; 47° C.
  Activity of Taq polymerase: 0.30
  Activation: −9%
Taq polymerase [1]; 48° C.
  Activity of Taq polymerase: 0.40
  Activation: −3%
Taq polymerase [1]; 49° C.
  Activity of Taq polymerase: 0.54
  Activation: +10%
Taq polymerase [1]; 50° C.
  Activity of Taq polymerase: 0.59
  Activation: +18%
Taq polymerase [1]; 51° C.
  Activity of Taq polymerase: 0.64
  Activation: +21%
Taq polymerase [1]; 52° C.
  Activity of Taq polymerase: 0.69
  Activation: +35%
Taq polymerase [1]; 53° C.
  Activity of Taq polymerase: 0.70
  Activation: +23%
Taq polymerase [1]; 53° C., 3.5M (36.4%)
  Taq polymerase activity at 3.5M (in words): residual activity
Taq polymerase [1]; 53° C., concentration gradients, compared with 2-pyrrolidone, sulfolane and tetramethylene sulfoxide
  effect on Taq polymerase activity at high concentrations (in words): compromises polymerase activity to the least extent
Taq polymerase [1]; 54° C.
  Activity of Taq polymerase: 0.63
  Activation: +3%
Taq polymerase [1]; 55° C.
  Activity of Taq polymerase: 0.57
  Activation: −19%
[2]; 75/50/53° C., 2.0 M 1,5-pentanediol
  GTP Potency: 0.00
[2]; 75/50/53° C., 2.0 M 1,5-pentanediol, listed as 1,5-pentanediol
  GTP Potency: unsuccessful
[2]; 75/50/53° C., 2.5 M 1,5-pentanediol
  GTP Potency: 0.00
[2]; 75/50/53° C., 2.5 M 1,5-pentanediol, listed as 1,5-pentanediol
  GTP Potency: unsuccessful
[2]; 75/50/53° C., 3.0 M 1,5-pentanediol
  GTP Potency: 0.53
[2]; 75/50/53° C., 3.0 M 1,5-pentanediol, listed as 1,5-pentanediol
  GTP Potency: succeeded in producing amplification
[2]; 80/50/53° C., 1.5 M 1,5-pentanediol
  GTP Potency: 0.00
[2]; 80/50/53° C., 1.5 M 1,5-pentanediol, listed as 1,5-pentandediol
  GTP Potency: failed to produce any discernable amplification
[2]; 80/50/53° C., 2.0 M 1,5-pentanediol
  GTP Potency: 2.69
[2]; 80/50/53° C., 2.0 M 1,5-pentanediol, listed as 1,5-pentandediol
  GTP Potency: high yield
[2]; 85/50/53° C. denaturation/annealing/extension, 1.0 M 1,5-pentanediol
  GTP Potency: 2.78
[2]; 85/50/53° C. denaturation/annealing/extension, 1.0 M 1,5-pentanediol, listed as 1,5-pentanediol
  GTP Potency: strong amplification
[2]; 85/50/53° C., 1.5 M 1,5-pentanediol
  GTP Potency: 2.64
[2]; 85/50/53° C., 1.5 M 1,5-pentanediol, listed as 1,5-pentanediol
  GTP Potency: strong amplification
Taq polymerase [3]
  half-life of Taq polymerase: ~10 s

Reference: patent US7772383B2, “Chemical PCR: Compositions for enhancing polynucleotide amplification reactions” (The Trustees of Princeton University, priority 2002, dated 2010)
